Laboratory results taken from patent US20230271954A1 (Gossamer Bio Services, Inc., priority 2020, published 2023).
Values belong to the compound of their own block, whether it stands above or below them.

Columns and labels:
DGKα = DGKα (Homo sapiens, UniProt P23743); assay: DGKα biochemical assay (ADP-Glo); settings: read-out: DGK α IC50
Outline: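 ADP-Glo kinase assay using OAG/PS (1:2) lipid substrate, sonicated, in HEPES pH 7.0 buffer with MgCl2, CaCl2, DTT, BSA, Triton X-100. Enzyme preincubated with compound 30 min at RT; substrate with ATP (DGKα: 400 μM) added, 45 min RT. Luminescence read; % inhibition vs DMSO and no-enzyme controls.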

DGKζ = biological target: T1, DGKζ (Homo sapiens, UniProt Q13574); assay: DGKζ biochemical assay (ADP-Glo); settings: read-out: DGK ζ IC50
T1 construct: purchased Carna 12-110
T1 sequence (Q13574 1-929 isoform Q13574-4): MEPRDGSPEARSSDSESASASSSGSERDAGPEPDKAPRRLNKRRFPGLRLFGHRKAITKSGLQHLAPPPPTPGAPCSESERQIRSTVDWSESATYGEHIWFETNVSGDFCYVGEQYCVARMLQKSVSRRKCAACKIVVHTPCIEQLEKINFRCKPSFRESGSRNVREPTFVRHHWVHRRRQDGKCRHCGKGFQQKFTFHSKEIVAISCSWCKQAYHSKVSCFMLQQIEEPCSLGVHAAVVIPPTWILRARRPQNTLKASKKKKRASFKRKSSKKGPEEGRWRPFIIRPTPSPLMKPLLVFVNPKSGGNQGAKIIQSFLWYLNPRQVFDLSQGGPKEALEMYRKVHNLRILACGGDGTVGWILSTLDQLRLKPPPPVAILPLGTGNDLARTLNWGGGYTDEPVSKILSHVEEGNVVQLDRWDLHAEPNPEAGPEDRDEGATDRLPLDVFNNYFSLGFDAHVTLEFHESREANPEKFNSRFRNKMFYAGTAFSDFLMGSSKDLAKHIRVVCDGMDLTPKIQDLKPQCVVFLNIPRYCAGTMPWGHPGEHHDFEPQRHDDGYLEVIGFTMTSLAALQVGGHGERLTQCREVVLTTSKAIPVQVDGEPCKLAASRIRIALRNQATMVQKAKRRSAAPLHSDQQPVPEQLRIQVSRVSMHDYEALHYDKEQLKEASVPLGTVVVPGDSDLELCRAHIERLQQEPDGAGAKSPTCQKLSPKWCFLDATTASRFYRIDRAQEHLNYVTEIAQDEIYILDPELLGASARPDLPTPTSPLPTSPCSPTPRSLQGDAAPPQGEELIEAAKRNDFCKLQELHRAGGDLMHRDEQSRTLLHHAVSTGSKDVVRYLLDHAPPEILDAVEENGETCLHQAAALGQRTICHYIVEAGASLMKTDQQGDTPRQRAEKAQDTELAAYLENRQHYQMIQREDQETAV

DGKα, sequence (P23743 whole entry): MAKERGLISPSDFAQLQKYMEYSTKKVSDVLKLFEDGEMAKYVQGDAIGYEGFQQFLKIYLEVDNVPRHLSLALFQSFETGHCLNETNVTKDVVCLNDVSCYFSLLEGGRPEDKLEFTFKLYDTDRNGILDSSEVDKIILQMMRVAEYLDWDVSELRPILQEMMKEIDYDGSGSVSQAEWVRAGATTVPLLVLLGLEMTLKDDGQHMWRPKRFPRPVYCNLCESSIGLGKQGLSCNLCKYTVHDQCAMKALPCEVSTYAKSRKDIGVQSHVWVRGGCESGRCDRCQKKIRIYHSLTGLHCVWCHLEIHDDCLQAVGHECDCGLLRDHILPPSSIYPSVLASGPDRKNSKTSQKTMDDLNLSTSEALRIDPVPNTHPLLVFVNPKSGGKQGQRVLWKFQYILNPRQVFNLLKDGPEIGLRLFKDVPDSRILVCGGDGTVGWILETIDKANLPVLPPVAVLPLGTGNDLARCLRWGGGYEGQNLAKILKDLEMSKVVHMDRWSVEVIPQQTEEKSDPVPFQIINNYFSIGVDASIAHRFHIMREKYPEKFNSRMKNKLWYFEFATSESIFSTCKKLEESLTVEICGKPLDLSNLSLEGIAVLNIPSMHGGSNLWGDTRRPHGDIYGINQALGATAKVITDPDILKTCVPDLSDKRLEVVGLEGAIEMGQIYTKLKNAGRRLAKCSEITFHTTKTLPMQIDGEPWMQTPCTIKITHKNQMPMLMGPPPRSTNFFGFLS

Compound: Cc1ccc(N(CC2CCOC2)[C@H]2CC[C@@H](N(C)c3cc(=O)n(C)c4ccc(C#N)nc34)CC2)cc1OC(F)F (stereo partly drawn) [Example 162, cis-8-((-4-((3-(difluoromethoxy)-4-methylphenyl) ((tetrahydrofuran-3-yl)methyl)amino)cyclohexyl) (methyl)amino)-5-methyl-6-oxo-5,6-dihydro-1,5-naphthyridine-2-carbonitrile]
IC50 (DGKα): 100 to 1000 nM
IC50 (DGKζ): 100 to 1000 nM

Compound: Cc1cc(N(CC2CC2)[C@H]2CC[C@H](N(C)c3c(C#N)c(=O)n(C)c4ccc(C#N)nc34)CC2)ccc1F [Example 125, trans-8-((4-((cyclopropylmethyl)(4-fluoro-3-methylphenyl)amino)cyclohexyl)(methyl)amino)-5-methyl-6-oxo-5,6-dihydro-1,5-naphthyridine-2,7-dicarbonitrile]
IC50 (DGKα): 100 to 1000 nM
IC50 (DGKζ): 100 to 1000 nM

Compound: COc1cc(F)ccc1N(C1CCC1)[C@H]1CC[C@@H](N(C)c2c(C#N)c(=O)n(C)c3ccc(C#N)nc23)CC1 [Example 18, cis-8-((4-(cyclobutyl(4-fluoro-2-methoxyphenyl)amino)cyclohexyl)(methyl)amino)-5-methyl-6-oxo-5,6-dihydro-1,5-naphthyridine-2,7-dicarbonitrile]
IC50 (DGKα): 100 to 1000 nM
IC50 (DGKζ): 100 to 1000 nM

Compound: Cc1c(F)cccc1N(CC1CC1)[C@H]1CC[C@H](N(C)c2c(C#N)c(=O)n(C)c3ccc(C#N)nc23)CC1 [Example 107, trans-8-((4-((cyclopropylmethyl)(3-fluoro-2-methylphenyl)amino)cyclohexyl)(methyl)amino)-5-methyl-6-oxo-5,6-dihydro-1,5-naphthyridine-2,7-dicarbonitrile]
IC50 (DGKα): ≥ 1000 nM
IC50 (DGKζ): 100 to 1000 nM

Compound: Cn1c(=O)cc(N(C)[C@H]2CC[C@@H](N(CC3CCC3)c3ccc(F)c(CN4CCOCC4)c3)CC2)c2nc(C#N)ccc21 [Example 175, cis-8-((-4-((cyclobutylmethyl)(4-fluoro-3-(morpholinomethyl)phenyl)amino)cyclohexyl) (methyl)amino)-5-methyl-6-oxo-5,6-dihydro-1,5-naphthyridine-2-carbonitrile]
IC50 (DGKα): 100 to 1000 nM
IC50 (DGKζ): 100 to 1000 nM

Compound: COc1cc(N(C2CC2)[C@H]2CC[C@H](N(C)c3cc(=O)n(C)c4ccc(C#N)nc34)CC2)ccc1F [Example 93]
IC50 (DGKα): 100 to 1000 nM
IC50 (DGKζ): ≥ 1000 nM

Compound: COc1cc(N(CC2CC2)[C@H]2CC[C@@H](N(C)c3cc(=O)n(C)c4ccc(C#N)nc34)CC2)ccc1F [Example 38, cis-8-((4-((cyclopropylmethyl)(4-fluoro-3-methoxyphenyl)amino)cyclohexyl)(methyl)amino)-5-methyl-6-oxo-5,6-dihydro-1,5-naphthyridine-2-carbonitrile]
IC50 (DGKα): 100 to 1000 nM
IC50 (DGKζ): 100 to 1000 nM

Compound: Cc1cc(F)ccc1N(C[C@H]1CCCO1)[C@H]1CC[C@H](N(C)c2c(C#N)c(=O)n(C)c3ccc(C#N)nc23)CC1 [Example 167, trans-8-((-4-((4-fluoro-2-methylphenyl)(((R)-tetrahydrofuran-2-yl)methyl)amino)cyclohexyl) (methyl)amino)-5-methyl-6-oxo-5,6-dihydro-1,5-naphthyridine-2,7-dicarbonitrile]
IC50 (DGKα): 100 to 1000 nM
IC50 (DGKζ): 10 to 100 nM

Compound: Cn1c(=O)c(C#N)c(N(C)[C@H]2CC[C@H](N(CC3CCC3)c3ccc(F)cc3C3CC3)CC2)c2nc(C#N)ccc21 [Example 127, trans-8-((-4-((cyclobutylmethyl)(2-cyclopropyl-4-fluorophenyl)amino)cyclohexyl)(methyl)amino)-5-methyl-6-oxo-5,6-dihydro-1,5-naphthyridine-2,7-dicarbonitrile]
IC50 (DGKα): 100 to 1000 nM
IC50 (DGKζ): 10 to 100 nM

Compound: Cc1[nH]c2ccccc2c1C(=O)N[C@H]1CC[C@@H](N(CC2CC2)c2ccccc2)CC1 [Example 4A]
IC50 (DGKα): ≥ 1000 nM
IC50 (DGKζ): ≥ 1000 nM

Compound: Cn1c(=O)c(C#N)c(N(C)[C@H]2CC[C@@H](N(CC3CC3)c3ccc4c(c3)OCO4)CC2)c2nc(C#N)ccc21 [Example 61, cis-8-((4-(benzo[d][1,3]dioxol-5-yl(cyclopropylmethyl)amino)cyclohexyl)(methyl)amino)-5-methyl-6-oxo-5,6-dihydro-1,5-naphthyridine-2,7-dicarbonitrile]
IC50 (DGKα): 100 to 1000 nM
IC50 (DGKζ): 10 to 100 nM

Compound: Cn1c(=O)c(C#N)c(N(C)[C@H]2CC[C@H](N(CC3COC3)c3ccc(F)cc3O)CC2)c2nc(Cl)ccc21 [Example 3O, trans-6-chloro-4-((4-((4-fluoro-2-hydroxyphenyl)(oxetan-3-ylmethyl)amino)cyclohexyl)(methyl)amino)-1-methyl-2-oxo-1,2-dihydro-1,5-naphthyridine-3-carbonitrile]
IC50 (DGKα): 100 to 1000 nM
IC50 (DGKζ): ≥ 1000 nM

Compound: Cn1c(=O)cc(N(C)[C@H]2CC[C@H](N(CC3CC3)c3cccc(F)c3)CC2)c2nc(C#N)ccc21 [Example 25, trans-8-((4-((cyclopropylmethyl)(3-fluorophenyl)amino)cyclohexyl)(methyl)amino)-5-methyl-6-oxo-5,6-dihydro-1,5-naphthyridine-2-carbonitrile]
IC50 (DGKα): ≥ 1000 nM
IC50 (DGKζ): ≥ 1000 nM

Compound: Cn1c(=O)c([N+](=O)[O-])c(N2CCC(N(CC3CC3)c3ccccc3)CC2)c2nc(C#N)ccc21 [Example 1B, 8-(4-((Cyclopropylmethyl)(phenyl)amino)piperidin-1-yl)-5-methyl-7-nitro-6-oxo-5,6-dihydro-1,5-naphthyridine-2-carbonitrile]
IC50 (DGKα): 10 to 100 nM
IC50 (DGKζ): 100 to 1000 nM

Compound: CC(C)CN(c1ccc(F)cc1)[C@H]1CC[C@H](N(C)c2cc(=O)n(C)c3ccc(C#N)nc23)CC1 [Example 41, trans-8-((-4-((4-fluorophenyl)(isobutyl)amino)cyclohexyl)(methyl)amino)-5-methyl-6-oxo-5,6-dihydro-1,5-naphthyridine-2-carbonitrile]
IC50 (DGKα): ≥ 1000 nM
IC50 (DGKζ): ≥ 1000 nM

Compound: COc1cc(F)ccc1N(C)[C@H]1CC[C@@H](N(C)c2c(C#N)c(=O)n(C)c3ccc(Cl)nc23)CC1 [Example 45, cis-6-chloro-4-((4-((4-fluoro-2-methoxyphenyl) (methyl)amino)cyclohexyl)(methyl)amino)-1-methyl-2-oxo-1,2-dihydro-1,5-naphthyridine-3-carbonitrile]
IC50 (DGKα): 10 to 100 nM
IC50 (DGKζ): 100 to 1000 nM

Now from value to compound:

IC50 (DGKα): < 10 nM
IC50 (DGKζ): 100 to 1000 nM
Compound: Cn1c(=O)cc(N(C)[C@H]2CC[C@@H](N(CC3CCC3)c3ccc(F)cc3)CC2)c2nc(C#N)ccc21 [Example 43, cis-8-((-4-((cyclobutylmethyl)(4-fluorophenyl)amino)cyclohexyl)(methyl)amino)-5-methyl-6-oxo-5,6-dihydro-1,5-naphthyridine-2-carbonitrile]

IC50 (DGKα): 10 to 100 nM
IC50 (DGKζ): 10 to 100 nM
Compound: Cc1cc(F)ccc1N(CC1CC1)[C@H]1CC[C@H](N(C)c2c(C#N)c(=O)n(C)c3ccc(C#N)nc23)CC1 [Example 73, trans-8-((4-((cyclopropylmethyl)(4-fluoro-2-methylphenyl)amino)cyclohexyl)(methyl)amino)-5-methyl-6-oxo-5,6-dihydro-1,5-naphthyridine-2,7-dicarbonitrile]

IC50 (DGKα): < 10 nM
IC50 (DGKζ): 100 to 1000 nM
Compound: Cn1c(=O)c(C#N)c(N(C)[C@H]2CC[C@@H](N(c3ccc(F)cc3)C3CCC3)CC2)c2nc(C#N)ccc21 [Example 16]

IC50 (DGKα): 10 to 100 nM
IC50 (DGKζ): 10 to 100 nM
Compound: COc1cc(F)ccc1N(C)[C@H]1CC[C@@H](N(C)c2c(C#N)c(=O)n(C)c3ccc(C#N)nc23)CC1 [Example 64]

IC50 (DGKα): 10 to 100 nM
IC50 (DGKζ): 10 to 100 nM
Compound: Cn1c(=O)c(C#N)c(N(C)[C@H]2CC[C@@H](N(CC3CC3)c3cc(F)cc(F)c3)CC2)c2nc(C#N)ccc21 [Example 81]

IC50 (DGKα): < 10 nM
IC50 (DGKζ): 10 to 100 nM
Compound: CC(C)CN(c1ccc(F)cc1)[C@H]1CC[C@@H](N(C)c2c(C#N)c(=O)n(C)c3ccc(C#N)nc23)CC1 [Example 52, cis-8-((-4-((4-fluorophenyl)(isobutyl)amino)cyclohexyl)(methyl)amino)-5-methyl-6-oxo-5,6-dihydro-1,5-naphthyridine-2,7-dicarbonitrile]

IC50 (DGKα): 10 to 100 nM
IC50 (DGKζ): ≥ 1000 nM
Compound: Cn1c(=O)c(C#N)c(N(C)[C@H]2CC[C@H](N(CC3CCOC3)c3ccc(F)cc3)CC2)c2nc(C#N)ccc21 (relative stereo) [Example 56, trans-8-((4-((4-fluorophenyl)((tetrahydrofuran-3-yl)methyl)amino)cyclohexyl)(methyl)amino)-5-methyl-6-oxo-5,6-dihydro-1,5-naphthyridine-2,7-dicarbonitrile]

IC50 (DGKα): < 10 nM
IC50 (DGKζ): 10 to 100 nM
Compound: Cn1c(=O)c(C#N)c(N(C)[C@H]2CC[C@@H](N(CC3CC3)c3ccc(F)cc3)CC2)c2nc(C#N)ccc21 [Example 30, cis-8-((4-((cyclopropylmethyl)(4-fluorophenyl)amino)cyclohexyl)(methyl)amino)-5-methyl-6-oxo-5,6-dihydro-1,5-naphthyridine-2,7-dicarbonitrile]

IC50 (DGKα): 10 to 100 nM
IC50 (DGKζ): 100 to 1000 nM
Compound: Cn1c(=O)c(C#N)c(N(C)[C@H]2CC[C@H](N(c3ccc(F)cc3)C3CC3)CC2)c2nc(Cl)ccc21 [Example 3F, trans-6-chloro-4-((4-(cyclopropyl(4-fluorophenyl)amino)cyclohexyl) (methyl)amino)-1-methyl-2-oxo-1,2-dihydro-1,5-naphthyridine-3-carbonitrile]

IC50 (DGKα): 10 to 100 nM
IC50 (DGKζ): ≥ 1000 nM
Compound: Cn1c(=O)c(C#N)c(N(C)[C@H]2CC[C@@H](N(CC3CC3)c3ccc(Cl)cc3)CC2)c2nc(Cl)ccc21 [Example 6, cis-6-chloro-4-((4-((4-chlorophenyl) (cyclopropylmethyl)amino)cyclohexyl)(methyl)amino)-1-methyl-2-oxo-1,2-dihydro-1,5-naphthyridine-3-carbonitrile]

IC50 (DGKα): 10 to 100 nM
IC50 (DGKζ): ≥ 1000 nM
Compound: Cn1c(=O)c(C#N)c(N(C)[C@H]2CC[C@H](N(c3ccccc3)C3CC3)CC2)c2nc(Cl)ccc21 [Example 3C, trans-6-Chloro-4-((4-(cyclopropyl(phenyl)amino)cyclohexyl)(methyl)amino)-1-methyl-2-oxo-1,2-dihydro-1,5-naphthyridine-3-carbonitrile]
